Where “and” joins values, the source holds several entries; their conditions need not be identical. Equal entries are not always repeated.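 Results reflect a 48-hour exposure of cells in 96-well plates to compound at five concentrations. At the GI50, growth is halved. TGI marks complete inhibition of growth.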
Experiments:
Assay in all cases: NCI-60 cell line screen, 48 h
[1] = tested on: A498 renal
[2] = tested on: MDA-MB-435
[3] = tested on: A549 NSCLC
[4] = tested on: MALME-3M melanoma
[5] = tested on: SNB-19 CNS
[6] = tested on: OVCAR-3 ovarian
[7] = tested on: SR leukemia
[8] = tested on: TK-10 renal
[9] = tested on: MOLT-4 leukemia
[10] = tested on: UACC-257 melanoma

CCN1C(=O)N(CC)C2C1NN=c1s/c(=C\c3cccnc3)c(=O)n12 (stereo not given)
GI50 [1]: 0.224 µM | TGI [1]: 1.01 µM | GI50 [2]: 0.154 µM | TGI [2]: 0.527 µM | GI50 [3]: 0.733 µM | TGI [3]: > 100 µM | GI50 [4]: 0.599 µM | TGI [4]: > 100 µM | GI50 [5]: 0.676 µM | TGI [5]: > 100 µM | GI50 [6]: 0.359 µM | TGI [6]: 8.53 µM | GI50 [7]: 0.132 µM | TGI [7]: > 100 µM | GI50 [8]: > 100 µM | TGI [8]: > 100 µM | GI50 [9]: 0.596 µM | TGI [9]: > 100 µM | GI50 [10]: > 100 µM | TGI [10]: > 100 µM

COc1c(CCC[P+](c2ccccc2)(c2ccccc2)c2ccccc2)cc2c(c1OC)OCO2
GI50 [1]: 0.0261 µM | TGI [1]: 3.3 µM | GI50 [2]: 0.462 µM | TGI [2]: 5.03 µM | GI50 [3]: 3.7 µM | TGI [3]: 38.1 µM | GI50 [4]: 0.599 µM | TGI [4]: 10.2 µM | GI50 [5]: 1.44 µM | TGI [5]: 12.9 µM | GI50 [6]: 0.629 µM | TGI [6]: 18 µM | GI50 [7]: 1.07 µM | TGI [7]: 15 µM | GI50 [8]: 4.71 µM | TGI [8]: 34.7 µM | GI50 [9]: 3.12 µM | TGI [9]: 16.3 µM | GI50 [10]: 0.312 µM | TGI [10]: 4.38 µM

CN(C)S(=O)(=O)c1ccc(NC(=O)COC(=O)c2ccc(S(=O)(=O)N3CCCCC3)cc2)cc1
GI50 [1]: > 100 µM | TGI [1]: > 100 µM | GI50 [2]: > 100 µM | TGI [2]: > 100 µM | GI50 [3]: > 100 µM | TGI [3]: > 100 µM | GI50 [4]: > 100 µM | TGI [4]: > 100 µM | GI50 [5]: > 100 µM | TGI [5]: > 100 µM | GI50 [6]: > 100 µM | TGI [6]: > 100 µM | GI50 [7]: > 100 µM | TGI [7]: > 100 µM | GI50 [8]: > 100 µM | TGI [8]: > 100 µM | GI50 [9]: > 100 µM | TGI [9]: > 100 µM | GI50 [10]: > 100 µM | TGI [10]: > 100 µM

CCCCOc1ccc(NC(N)=Nc2ccc(Cl)cc2)cc1
TGI [1]: 14.5 µM | TGI [2]: 23.4 µM | TGI [3]: 10.3 µM | TGI [4]: 8.34 µM | TGI [5]: 20 µM | TGI [6]: 22.7 µM | TGI [7]: 47.6 µM | TGI [8]: 18 µM | TGI [9]: > 42 µM | TGI [10]: 5.21 µM

CCN(Cc1ccc(F)c(F)c1)c1ccc(CO)c(Cl)c1
GI50 [1]: 0.0353 µM | TGI [1]: 0.153 µM | GI50 [2]: 17.9 µM | TGI [2]: 37.6 µM | GI50 [3]: 1.89 µM | TGI [3]: 19.1 µM | GI50 [4]: 17.2 µM | TGI [4]: 33.3 µM | GI50 [5]: 12.6 µM | TGI [5]: 27.8 µM | GI50 [6]: 0.395 µM | TGI [6]: 2.25 µM | GI50 [7]: 20.2 µM | TGI [7]: 52.5 µM | GI50 [8]: 0.102 µM | TGI [8]: 0.303 µM | GI50 [9]: 16.8 µM | TGI [9]: 47.6 µM | GI50 [10]: 0.138 µM | TGI [10]: 0.432 µM

C=C1C(=O)O[C@H]2[C@H]1CC/C(COC(=O)NCc1ccccc1OC)=C\CC[C@@]1(C)O[C@@H]21
GI50 [1]: 3.23 µM | TGI [1]: 8.53 µM | GI50 [2]: 1.7 µM | TGI [2]: 4.86 µM | GI50 [3]: 3.07 µM | TGI [3]: 11.8 µM | GI50 [4]: 1.89 µM | TGI [4]: 3.98 µM | GI50 [5]: 1.57 µM | TGI [5]: 3.47 µM | GI50 [6]: 0.872 µM | TGI [6]: 2.42 µM | GI50 [7]: 0.679 µM | TGI [7]: 5.19 µM | GI50 [8]: 1.79 µM | TGI [8]: 3.48 µM | GI50 [9]: 2.53 µM | TGI [9]: 6.13 µM | GI50 [10]: 1.48 µM | TGI [10]: 3.51 µM

COc1cccc(/C=C/C(=O)c2cccc(Nc3nc(Nc4ccccc4)nc(Nc4ccccc4)n3)c2)c1
GI50 [1]: 6.04 µM | TGI [1]: 17.7 µM | GI50 [2]: 14.5 µM | TGI [2]: > 59.7 µM | GI50 [3]: 30.9 µM | TGI [3]: > 100 µM | GI50 [4]: > 48.7 µM | TGI [4]: > 100 µM | GI50 [5]: > 56.9 µM | TGI [5]: > 100 µM | GI50 [6]: 9.16 µM | TGI [6]: 33.5 µM | GI50 [7]: 1.89 µM | TGI [7]: 9.13 µM | GI50 [8]: 41.5 µM | TGI [8]: > 93.1 µM | GI50 [9]: 3.86 µM | TGI [9]: 26.3 µM | GI50 [10]: > 56 µM | TGI [10]: > 100 µM

O=C(c1ccc(F)cc1)c1cccc(C(=O)c2ccc(F)cc2)n1
TGI [1]: > 100 µM | TGI [2]: > 100 µM | TGI [3]: > 100 µM | TGI [4]: > 100 µM | TGI [5]: 54 µM | TGI [6]: > 100 µM | TGI [7]: > 100 µM | TGI [8]: 69.3 µM | TGI [9]: > 100 µM | TGI [10]: > 56.2 µM

COc1cc(C2c3cc4c(cc3OC(N3CCCC3)C2C)OCO4)cc(OC)c1OC (stereo not given)
TGI [1]: 7.73 µM | TGI [2]: 1.84 µM | TGI [3]: 50.4 µM | TGI [4]: 34.7 µM | TGI [5]: 15.4 µM | TGI [6]: 0.601 µM | TGI [7]: > 17.1 µM | TGI [8]: 30.2 µM | TGI [9]: > 18.6 µM | TGI [10]: 49 µM

O=C1OC(=O)C(c2c[nH]c3ccccc23)=C1c1c[nH]c2ccccc12
GI50 [1]: > 25 µM | TGI [1]: > 25 µM | GI50 [2]: > 25 µM | TGI [2]: > 25 µM | GI50 [3]: > 25 µM | TGI [3]: > 25 µM | GI50 [4]: > 25 µM | TGI [4]: > 25 µM | GI50 [5]: > 25 µM | TGI [5]: > 25 µM | GI50 [6]: > 25 µM | TGI [6]: > 25 µM | GI50 [7]: > 25 µM | TGI [7]: > 25 µM | GI50 [8]: > 25 µM | TGI [8]: > 25 µM | GI50 [9]: > 25 µM | TGI [9]: > 25 µM | GI50 [10]: > 25 µM | TGI [10]: > 25 µM

O=C(c1ccccc1)C1N=NCC1c1ccc([N+](=O)[O-])cc1 (stereo not given)
TGI [1]: > 100 µM | TGI [2]: > 100 µM | TGI [3]: > 100 µM | TGI [4]: > 100 µM | TGI [5]: > 100 µM | TGI [6]: 48.4 µM | TGI [7]: 84.7 µM | TGI [8]: > 100 µM | TGI [9]: 72.9 µM | TGI [10]: 88.4 µM

CCN(CC)CCn1ccc(=O)c2cc3c(=O)ccn(CCN(CC)CC)c3c(C)c21
TGI [1]: 29.2 µM | TGI [2]: 16.7 µM | TGI [3]: 14.1 µM | TGI [4]: 29.6 µM | TGI [5]: 18.3 µM | TGI [6]: 23.6 µM | TGI [7]: 3.94 µM | TGI [8]: 26.7 µM | TGI [9]: > 100 µM | TGI [10]: 33.9 µM

C[C@@H](C(=O)Nc1ccc(Cl)cc1)C1CCC(c2ccnc3ccc(F)cc23)CC1 (stereo not given in full)
GI50 [1]: 6.27 µM | TGI [1]: 56.8 µM | GI50 [2]: 9.08 µM | TGI [2]: 54.9 µM | GI50 [3]: 9.9 µM | TGI [3]: > 100 µM | GI50 [4]: 9.83 µM | TGI [4]: 60 µM | GI50 [5]: 10.8 µM | TGI [5]: > 100 µM | GI50 [6]: 11.9 µM | TGI [6]: 63.1 µM | GI50 [7]: 2.23 µM | TGI [7]: 12.1 µM | GI50 [8]: 6.04 µM | TGI [8]: 81.3 µM | GI50 [9]: 4.16 µM | TGI [9]: > 100 µM | GI50 [10]: 13.3 µM | TGI [10]: 53.7 µM

CC(C)NC[C@@H](C(=O)N1CCN(c2ncnc3c2[C@H](C)C[C@H]3O)CC1)c1ccc(Cl)cc1
GI50 [1]: 0.396 µM and 0.24 µM | TGI [1]: 5.88 µM and 4.3 µM | GI50 [2]: > 10 µM and 20.9 µM | TGI [2]: > 100 µM | GI50 [3]: > 10 µM and 5.05 µM | TGI [3]: > 100 µM | GI50 [4]: > 10 µM and 4.54 µM | TGI [4]: > 76.7 µM | GI50 [5]: 1.64 µM and 1.38 µM | TGI [5]: > 89.5 µM | GI50 [6]: > 10 µM and 12.3 µM | TGI [6]: > 100 µM | GI50 [7]: > 10 µM and 13 µM | TGI [7]: > 71.5 µM | GI50 [8]: 1.29 µM and 3.32 µM | TGI [8]: > 66.4 µM | GI50 [9]: 0.676 µM and 0.747 µM | TGI [9]: > 10 µM and 73.9 µM | GI50 [10]: > 10 µM and 10.8 µM | TGI [10]: > 10 µM and 49.8 µM

Source: PubChem BioAssay (NCI)
